# What was measured:
# BT-20 [1] = experiment: Effect on proliferation of human breast cancer cell line BT-20 by MTT assay method; format: functional, cell-based
# Candida albicans [2] = experiment: In vitro growth inhibitory concentration for antifungal activity against Candida albicans; format: functional
# NALM-6 [3] = experiment: Effect on proliferation of human B-lineage acute lymphoblastic leukemia cell line NALM-6 by MTT assay method; format: functional, cell-based
# [4] = tested on: Saccharomyces pastorianus; experiment: In vitro growth inhibitory concentration for antifungal activity against Saccharomyces carlsbergensis; format: functional
# U373 MG [5] = experiment: Effect on proliferation of human brain tumor (glioblastoma) cell line U373 by MTT assay method; format: functional, cell-based, U-373MG ATCC
# BT-20 [6] = experiment: In vitro anticlonogenic effect on human breast cancer cell line BT-20 100 nM concentration; format: functional
# BT-20 [7] = experiment: In vitro anticlonogenic effect on human breast cancer cell line BT-20 10 nM concentration; format: functional
# BT-20 [8] = experiment: In vitro anticlonogenic effect on human breast cancer cell line BT-20 1 nM concentration; format: functional
# NALM-6 [9] = experiment: In vitro anticlonogenic effect on human B-lineage acute lymphoblastic leukemia cell line NALM-6 at 10 nM concentration; format: functional
# NALM-6 [10] = experiment: In vitro anticlonogenic effect on human B-lineage acute lymphoblastic leukemia cell line NALM-6 at 100 nM concentration; format: functional
# NALM-6 [11] = experiment: In vitro anticlonogenic effect on human B-lineage acute lymphoblastic leukemia cell line NALM-6 at 1 nM concentration; format: functional
# [12] = tested on: Saccharomyces pastorianus; experiment: In vitro growth inhibitory concentration against Saccharomyces carlsbergensis; format: functional
# U373 MG [13] = experiment: In vitro anticlonogenic effect on human brain tumor (glioblastoma) cell line U373 10 nM concentration e; format: functional, U-373MG ATCC
# Candida albicans [14] = experiment: In vitro growth inhibitory concentration against Candida albicans; format: functional
# U373 MG [15] = experiment: In vitro anticlonogenic effect on human brain tumor (glioblastoma) cell line U373 100 nM concentration; format: functional, U-373MG ATCC
# BT-20 [16] = experiment: In vitro anticlonogenic effect on human breast cancer cell line BT-20 at 10 nM concentration; format: functional
# BT-20 [17] = experiment: In vitro anticlonogenic effect on human breast cancer cell line BT-20 at 1 nM concentration; format: functional
# BT-20 [18] = experiment: In vitro anticlonogenic effect on human breast cancer cell line BT-20 at 100 nM concentration; format: functional
# U373 MG [19] = experiment: In vitro anticlonogenic effect on human brain tumor (glioblastoma) cell line U373 at 100 nM concentration; format: functional, U-373MG ATCC
# U373 MG [20] = experiment: In vitro anticlonogenic effect on human brain tumor (glioblastoma) cell line U373 at 10 nM concentration; format: functional, U-373MG ATCC
# BT-20 [21] = experiment: In vitro anticlonogenic effect on human breast cancer cell line BT-20 at 10 nM concentration,; format: functional
SMILES,IC50 (BT-20 [1]),GI50 (Candida albicans [2]),IC50 (NALM-6 [3]),GI50 [4],IC50 (U373 MG [5]),Mean no. colonies (NALM-6 [9]),Mean no. colonies (NALM-6 [10]),Mean no. colonies (NALM-6 [11]),further results
COC(=O)C[C@]1(O)C[C@H](OC)C[C@H]([C@H](O)/C=C(C)/C=C/[C@@H](C/C=C/Br)OC)O1,> 2000 nM,1.6 nM,> 2000 nM,1.6 nM,> 2000 nM,,,,
C#CC[C@H](/C=C/C(C)=C/[C@@H](O)[C@H]1C[C@@H](OC)C[C@@](O)(Cc2nc(/C=C(\C)[C@@H]3O[C@@H]4C/C=C/c5nc(co5)[C@H]5C[C@H](O)C[C@@H](C[C@H]6CC(=C)C[C@H](C/C=C\C(=O)O[C@@H]([C@H]4C)[C@H]3C)O6)O5)co2)O1)OC,12.6 nM,,4.8 nM,,27.4 nM,293 10e4*cells,0 10e4*cells,2116 10e4*cells,Mean no. colonies (BT-20 [6]): 0 10e4*cells; Mean no. colonies (BT-20 [7]): 1062 10e4*cells; Mean no. colonies (BT-20 [8]): 1540 10e4*cells; GI50 [12]: 1.6 nM; Mean no. colonies (U373 MG [13]): 586 10e4*cells; GI50 (Candida albicans [14]): 1.6 nM; Mean no. colonies (U373 MG [15]): 144 10e4*cells
COC(=O)/C=C/C[C@H]1O[C@@H](/C(C)=C/c2coc(C[C@]3(O)C[C@H](OC)C[C@H]([C@H](O)/C=C(C)/C=C/[C@@H](C/C=C/Br)OC)O3)n2)[C@H](C)[C@@H](OC(C)=O)[C@H]1C,> 2000 nM,1.6 nM,> 2000 nM,1.6 nM,> 2000 nM,,,,
C=C1C[C@@H]2C[C@@H]3C[C@@H](O)C[C@@H](O3)c3coc(n3)/C=C/C[C@H]3O[C@@H](/C(C)=C/c4coc(C[C@]5(O)C[C@H](OC)C[C@H](CO)O5)n4)[C@H](C)[C@@H](OC(=O)/C=C\C[C@@H](C1)O2)[C@H]3C,> 2000 nM,1.6 nM,> 2000 nM,1.6 nM,> 2000 nM,,,,
C=C1C[C@@H]2C[C@@H]3C[C@@H](O)C[C@@H](O3)c3coc(n3)/C=C/C[C@H]3O[C@@H](/C(C)=C/c4coc(C[C@]5(OC)C[C@H](OC)C[C@H]([C@H](O)/C=C(C)/C=C/[C@@H](C/C=C/Br)OC)O5)n4)[C@H](C)[C@@H](OC(=O)/C=C\C[C@@H](C1)O2)[C@H]3C,11.3 nM,1.6 nM,5.2 nM,1.6 nM,29.2 nM,422 10e4*cells,0 10e4*cells,1760 10e4*cells,Mean no. colonies (BT-20 [16]): 1430 10e4*cells; Mean no. colonies (BT-20 [17]): 1824 10e4*cells; Mean no. colonies (BT-20 [18]): 0 10e4*cells; Mean no. colonies (U373 MG [19]): 0 10e4*cells; Mean no. colonies (U373 MG [20]): 578 10e4*cells
C=C1C[C@@H]2C[C@@H]3C[C@@H](O)C[C@@H](O3)c3coc(n3)/C=C/C[C@H]3O[C@@H](/C(C)=C/[C@H](CO)NC(=O)C[C@]4(O)C[C@H](OC)C[C@H]([C@H](O)/C=C(C)/C=C/[C@@H](C/C=C/Br)OC)O4)[C@H](C)[C@@H](OC(=O)/C=C\C[C@@H](C1)O2)[C@H]3C,> 2000 nM,1.6 nM,> 2000 nM,1.6 nM,> 2000 nM,,,,
C=C1C[C@@H]2C[C@@H]3C[C@@H](O)C[C@@H](O3)c3coc(n3)/C=C/C[C@H]3O[C@@H](/C(C)=C/c4coc(C[C@]5(O)C[C@H](OC)C[C@H]([C@H](O)/C=C(C)/C=C/[C@@H](C/C=C/Br)OC)O5)n4)[C@H](C)[C@@H](OC(=O)/C=C\C[C@@H](C1)O2)[C@H]3C,3.4 nM,1.6 nM,1.7 nM,1.6 nM,6.7 nM,0 10e4*cells,0 10e4*cells,270 10e4*cells,Mean no. colonies (BT-20 [16]): 0 10e4*cells; Mean no. colonies (BT-20 [17]): 1070 10e4*cells; inhibition at 0.01 µM (BT-20 [21]): > 99.9%; Mean no. colonies (BT-20 [18]): 0 10e4*cells; inhibition at 0.1 µM (BT-20 [18]): > 99.9%; inhibition at 0.01 µM (NALM-6 [9]): > 99.9%; inhibition at 0.1 µM (NALM-6 [10]): > 99.9%; Mean no. colonies (U373 MG [19]): 0 10e4*cells; inhibition at 0.1 µM (U373 MG [19]): > 99.9%; Mean no. colonies (U373 MG [20]): 378 10e4*cells
